In PubChem BioAssay AID256 (DTP/NCI, 2004):
Several values for one entry are separate records, joined by “and”; a condition that tells them apart may be missing. Equal entries are not always repeated. Toxic doses and inconclusive results are not listed. The calls were made as follows: active = survival T/C of 150% or more; inactive = T/C below 125% in these data.

Test system: CD2F1 mice, L1210 leukemia ip, survival T/C
Experiment: NCI In Vivo Anticancer Drug Screen. Data for tumor model L1210 Leukemia (intraperitoneal) in CD2F1 (CDF1) mice
Details: higher = longer survival
Outline: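 Each value reflects a quotient of treated over vehicle control outcomes in mice with a transplanted tumor.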

[1] = endpoint: mean survival time, dose: 100.0 mg/kg/injection, schedule: Q01DX001 (ip), vehicle: saline with Tween-80
[2] = endpoint: mean survival time, dose: 200.0 mg/kg/injection, schedule: Q01DX001 (ip), vehicle: saline with Tween-80
[3] = endpoint: mean survival time, dose: 6.25 mg/kg/injection, schedule: Q01DX009 (ip), vehicle: saline
[4] = endpoint: mean survival time, dose: 12.5 mg/kg/injection, schedule: Q01DX009 (ip), vehicle: saline
[5] = endpoint: mean survival time, dose: 25.0 mg/kg/injection, schedule: Q01DX009 (ip), vehicle: saline
[6] = endpoint: mean survival time, dose: 100.0 mg/kg/injection, schedule: Q04DX003 (ip), vehicle: saline

Measured: T/C

COC(=O)C1CN=NC1C(=O)OC (stereo not given)
inactive: endpoint: mean survival time, dose: 100.0 mg/kg/injection, schedule: Q01DX009 (ip), vehicle: saline with Tween-80 95 % of control | endpoint: mean survival time, dose: 200.0 mg/kg/injection, schedule: Q01DX009 (ip), vehicle: saline with Tween-80 95 % of control | endpoint: mean survival time, dose: 400.0 mg/kg/injection, schedule: Q01DX009 (ip), vehicle: saline with Tween-80 91 % of control

O=C1c2ccccc2C(=O)N1CCCCN1C(=O)c2ccccc2C1=O
inactive: [1] 90 % of control | [2] 87 % of control | endpoint: mean survival time, dose: 400.0 mg/kg/injection, schedule: Q01DX001 (ip), vehicle: saline with Tween-80 90 % of control

SCc1nc2ccccc2[nH]1
inactive: [1] 96 % of control | [2] 97 % of control

O=C(N/N=C/c1ccccc1Cl)c1ccccc1
inactive: endpoint: mean survival time, dose: 100.0 mg/kg/injection, schedule: Q01DX009 (ip), vehicle: Klucel (hydroxypropylcellulose) (HPC) 103 % of control | endpoint: mean survival time, dose: 200.0 mg/kg/injection, schedule: Q01DX009 (ip), vehicle: Klucel (hydroxypropylcellulose) (HPC) 98 % of control | endpoint: mean survival time, dose: 400.0 mg/kg/injection, schedule: Q01DX009 (ip), vehicle: Klucel (hydroxypropylcellulose) (HPC) 107 % of control

COc1cc(-c2ccc(N=Nc3ccc4c(S(=O)(=O)O)cc(S(=O)(=O)O)c(N)c4c3O)c(OC)c2)ccc1N=Nc1ccc2c(S(=O)(=O)O)cc(S(=O)(=O)O)c(N)c2c1O
inactive: [3] 100 % of control | [4] 100 % of control | [5] 105 % of control

[NH-]NC(=S)[S-].[NH-]NC(=S)[S-].[Ni]
inactive: endpoint: mean survival time, dose: 100.0 mg/kg/injection, schedule: Q04DX003 (ip), vehicle: saline with Tween-80 98 % of control | endpoint: mean survival time, dose: 200.0 mg/kg/injection, schedule: Q04DX003 (ip), vehicle: saline with Tween-80 102 % of control | endpoint: mean survival time, dose: 400.0 mg/kg/injection, schedule: Q04DX003 (ip), vehicle: saline with Tween-80 107 % of control

COc1cc2c3c(c1)-c1c(ccc(OC)c1OC)CC3N(CCN(CCCl)CCCl)CC2 (stereo not given)
inactive: endpoint: mean survival time, dose: 6.25 mg/kg/injection, schedule: Q04DX003 (ip), vehicle: saline 101 % of control | endpoint: mean survival time, dose: 12.5 mg/kg/injection, schedule: Q04DX003 (ip), vehicle: saline 98 % of control | endpoint: mean survival time, dose: 25.0 mg/kg/injection, schedule: Q04DX003 (ip), vehicle: saline 101 % of control | endpoint: mean survival time, dose: 50.0 mg/kg/injection, schedule: Q04DX003 (ip), vehicle: saline 101 % of control | [6] 87 % of control

Cc1cc(C)[nH]c(=O)n1
inactive: [6] 94 % of control | endpoint: mean survival time, dose: 200.0 mg/kg/injection, schedule: Q04DX003 (ip), vehicle: saline 102 % of control | endpoint: mean survival time, dose: 400.0 mg/kg/injection, schedule: Q04DX003 (ip), vehicle: saline 94 % of control

OCCCN1CCCCC1CO (stereo not given)
inactive: [4] 101 % of control and 103 % of control | [5] 98 % of control and 100 % of control | endpoint: mean survival time, dose: 50.0 mg/kg/injection, schedule: Q01DX009 (ip), vehicle: saline 97 % of control and 98 % of control | endpoint: mean survival time, dose: 100.0 mg/kg/injection, schedule: Q01DX009 (ip), vehicle: saline 97 % of control and 98 % of control | endpoint: mean survival time, dose: 200.0 mg/kg/injection, schedule: Q01DX009 (ip), vehicle: saline 98 % of control | endpoint: mean survival time, dose: 400.0 mg/kg/injection, schedule: Q01DX009 (ip), vehicle: saline 91 % of control and 97 % of control | endpoint: median survival time, dose: 400.0 mg/kg/injection, schedule: Q01DX009 (ip), vehicle: saline 103 % of control | endpoint: median survival time, dose: 800.0 mg/kg/injection, schedule: Q01DX009 (ip), vehicle: saline 97 % of control

NNC(=O)c1ccccc1Cl
inactive: endpoint: mean survival time, dose: 9.5 mg/kg/injection, schedule: Q01DX001 (ip), vehicle: other 97 % of control | endpoint: mean survival time, dose: 19.0 mg/kg/injection, schedule: Q01DX001 (ip), vehicle: other 95 % of control | endpoint: mean survival time, dose: 38.0 mg/kg/injection, schedule: Q01DX001 (ip), vehicle: other 97 % of control

CN=NC1(OC(C)=O)CCCC1
inactive: endpoint: mean survival time, dose: 3.12 mg/kg/injection, schedule: Q01DX009 (ip), vehicle: saline 109 % of control | [3] 111 % of control | [4] 118 % of control and 121 % of control | [5] 105 % of control

COC(=O)c1ccc(C=O)cc1
inactive: endpoint: mean survival time, dose: 100.0 mg/kg/injection, schedule: Q04DX003 (ip), vehicle: Klucel (hydroxypropylcellulose) (HPC) 87 % of control | endpoint: mean survival time, dose: 200.0 mg/kg/injection, schedule: Q04DX003 (ip), vehicle: Klucel (hydroxypropylcellulose) (HPC) 102 % of control | endpoint: mean survival time, dose: 400.0 mg/kg/injection, schedule: Q04DX003 (ip), vehicle: Klucel (hydroxypropylcellulose) (HPC) 94 % of control

CCCCOC(=O)C(C(=O)OCCCC)(C(=O)OCCCC)C(C(=O)OCCCC)(C(=O)OCCCC)C(=O)OCCCC
inactive: endpoint: mean survival time, dose: 100.0 mg/kg/injection, schedule: Q01DX001 (ip), vehicle: saline 90 % of control | endpoint: mean survival time, dose: 400.0 mg/kg/injection, schedule: Q01DX001 (ip), vehicle: saline 96 % of control
